Source: paper PMC12192976, “Unique Structural Features Relate to Evolutionary Adaptation of Cytochrome P450 in the Abyssal Zone” (International Journal of Molecular Sciences, 2025)

Key:
C. armatus CYP51 [1] = biological target: T1, C. armatus CYP51 (Coryphaenoides armatus, UniProt Z9AQN8BZD8); test: Stabilization of C. armatus CYP51 by TMAO (CO-binding spectra after overnight storage)
Description: Absorption spectra (270–700 nm) were recorded at 22 °C using a dual-beam Shimadzu UV-2600i spectrophotometer and UVProbe2.71 software. The P450 concentration was determined from the Soret band absorbance in the absolute spectrum, with the extinction coefficient 117 mM^−1 cm^−1 for the low-spin ferric form or 91 mM^−1 cm^−1 for the reduced (ferrous) carbon monoxide (CO) complex in the difference spectra. The spin state of the P450 samples was estimated from the absolute spectra using the ratio (ΔA393–470/ΔA417–470), with values of 0.35 and 2.0 corresponding to 100% low- and 100% high-spin iron, respectively.
After data collection the crystals were dissolved in phosphate buffered saline (PBS, Gibco, Billings, MT, USA). UV-visible absolute absorption spectra (270–700 nm) were recorded at room temperature using a NanoVue,4282 single beam spectrophotometer (CE Healthcare, Cardiff, UK) (Figure S4A). CO-binding difference absorption spectra (400–500 nm) were recorded using a dual-beam Shimadzu UV-2600i spectrophotometer as follows. The CO gas was bubbled through the protein solution, which was then divided into two cuvettes serving as a blank and standard, respectively. The baseline was taken, and a few crystals of […] were added to the sample cuvette (Figure S4B). […]

C. armatus CYP51 [2] = biological target: T1, C. armatus CYP51
Description: (§1) The samples were preincubated for 3 min at 37 °C in a shaking water bath, and the reaction was initiated by the addition of 100 μM NADPH and stopped by the extraction of sterols with ethyl acetate. The extracted sterols were dried, dissolved in 100 µL of methanol, and the products were analyzed by reversed-phase HPLC equipped with a β-RAM detector (INUS Systems) using a Nova-Pak 3.9 mm × 150 mm (4 μm) octadecylsilane (C18) HPLC column. The products were separated with an isocratic mobile phase composed of acetonitrile and methanol (4:1 (v/v)) at a flow rate of 0.75 mL/min [9]. Michaelis–Menten parameters were calculated using GraphPad Prism. The kcat and Km values for each reaction were determined by fitting the data to a Michaelis–Menten hyperbola, with the reaction rates (nmol product formed/nmol P450/min) being plotted versus total substrate concentration.

human CYP51 [3] = tested on: human CYP51; parameters: method as in PMID 27313059; conditions: cited from earlier work
human CYP51 [4] = biological target: human CYP51; parameters: method as in PMID 27313059; conditions: read-out: apparent dissociation constant (Kd), azole ligand; cited from earlier work
C. armatus CYP51 [5] = biological target: T1, C. armatus CYP51; test: Spectral titration with azole-based ligands (type II response)
Description: Equal amounts of the HPCD solution were added to the reference cuvette to correct for the solvent-induced spectral perturbations, and the difference spectra were taken in the wavelength range of 350–500 nm. […] Titrations with azole-based compounds were carried out at 0.5 µM P450 concentration in 5 cm optical path length cuvettes. Aliquots of 0.1 mM compounds dissolved in dimethyl sulfoxide (DMSO) were added to the sample cuvette, with each titration step being 0.1 µM. At each step, the corresponding volume of DMSO was added to the reference cuvette. The apparent spectral dissociation constants (Kd) were calculated in GraphPad Prism software, as described, for human CYP51 [22].

C. armatus CYP51 [6] = biological target: T1, C. armatus CYP51; test: Inhibition of reconstituted lanosterol 14α-demethylation, 1 h reaction; conditions: enzyme/inhibitor/substrate 1:50:50, 60 min
Description: as §1

C. armatus CYP51 [7] = biological target: T1, C. armatus CYP51; test: Spectral titration of C. armatus CYP51 with sterol substrates (type I response); conditions: P450 2 µM; for Kd: read-out: Kd (apparent spectral dissociation constant, sterol substrate), titration step 0.25 µM; for Spin State Transition in the Heme Iron: sterol 0.25−3 µM, 22 °C
Description: Equal amounts of the HPCD solution were added to the reference cuvette to correct for the solvent-induced spectral perturbations, and the difference spectra were taken in the wavelength range of 350–500 nm. […] The apparent spectral dissociation constants (Kd) were calculated in GraphPad Prism software, as described, for human CYP51 [22].

C. armatus CYP51 [8] = biological target: T1, C. armatus CYP51; test: Reconstituted sterol 14α-demethylation, steady-state (Michaelis–Menten) kinetics; conditions: 0.25 µM P450, 1 µM CPR, 1 min reaction, 37 °C; for kcat: sterol 3.12−37.5 µM
Description: as §1

[9] = read-out: apparent dissociation constant (Kd), azole ligand, P450 0.5 µM, titration step 0.1 µM

T1 sequence (Z9AQN8BZD8 6-449 limits assumed): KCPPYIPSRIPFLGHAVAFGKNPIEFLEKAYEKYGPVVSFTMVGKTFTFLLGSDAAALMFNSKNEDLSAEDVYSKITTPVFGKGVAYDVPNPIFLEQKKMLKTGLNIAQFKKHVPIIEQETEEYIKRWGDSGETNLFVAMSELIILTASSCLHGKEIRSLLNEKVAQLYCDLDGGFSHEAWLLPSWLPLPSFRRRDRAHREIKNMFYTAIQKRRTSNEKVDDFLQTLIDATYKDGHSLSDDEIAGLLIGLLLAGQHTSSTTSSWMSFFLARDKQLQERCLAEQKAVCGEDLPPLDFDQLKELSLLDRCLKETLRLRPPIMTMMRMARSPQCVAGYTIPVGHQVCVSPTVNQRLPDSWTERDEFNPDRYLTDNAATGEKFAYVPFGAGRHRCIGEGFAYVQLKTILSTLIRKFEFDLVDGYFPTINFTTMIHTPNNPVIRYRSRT

In the case of `C[N+](C)(C)[O-]` [TMAO, Trimethylamine oxide], the “spectral response in the C. armatus CYP51 heme iron (in words)” value (C. armatus CYP51 [1]) is reported as “does not cause any spectral response” and the “P450 recovery after overnight incubation (CO-binding spectra)” value (C. armatus CYP51 [1]; 10 mM TMAO, overnight storage at 4 °C in PBS) is reported as 90%.
In the case of `O=C(N[C@@H](Cn1ccnc1)c1ccc(-c2ccc(F)cc2)cc1F)c1ccc(-c2nnc(-c3ccccc3)o2)cc1` [VFV, (R)-N-(1-(3,4′-difluorobiphenyl-4-yl)-2-(1H-imidazol-1-yl)ethyl)-4-(5-phenyl-1,3,4-oxadiazol-2-yl)benzamide], the “inhibition of CYP51 activity” value (C. armatus CYP51 [2]) is listed as 93%, the “inhibition of CYP51 activity” value (human CYP51 [3]; human CYP51, enzyme/inhibitor/substrate 1:50:50, 60 min) is listed as 64% and the Kd (human CYP51 [4]) is listed as 90 nM. It also gave a Kd (C. armatus CYP51 [5]) of 20 nM.
For `C[C@@H](c1ncncc1F)[C@](O)(Cn1cncn1)c1ccc(F)cc1F` [voriconazole], the Kd (human CYP51 [4]) is listed as 2530 nM, the Kd (C. armatus CYP51 [5]; [9]) is listed as 610 nM and the “inhibitory effect on the C. armatus CYP51 activity (in words)” value (from here on “inhibitory effect”) (C. armatus CYP51 [6]) is listed as “did not have any inhibitory effect”.
In the case of `CC(=O)N1CCN(c2ccc(OCC3COC(Cn4ccnc4)(c4ccc(Cl)cc4Cl)O3)cc2)CC1` (stereo not shown) [ketoconazole], the “lanosterol converted in presence of inhibitor” value (human CYP51 [3]; human CYP51, 50-fold molar excess of inhibitor, 1 h reaction) is given as 100%, the Kd (human CYP51 [4]) is given as 70 nM and the Kd (C. armatus CYP51 [5]; [9]) is given as 10 nM.
In the case of `O[C@@](Cn1cnnn1)(c1ccc(F)cc1F)C(F)(F)c1ccc(-c2ccc(OCC(F)(F)F)cc2)cn1` [oteseconazole], the “inhibitory effect” value (C. armatus CYP51 [6]) is reported as “did not have any inhibitory effect”.
For `N#Cc1ccc(COc2ccc(C#Cc3ccc(C(F)(F)[C@](O)(Cn4cnnn4)c4ccc(F)cc4F)nc3)cc2)cc1` [VT-1598], the “inhibitory effect” value (C. armatus CYP51 [6]) was “did not have any inhibitory effect”.
With `C=C(CC[C@@H](C)C1CC[C@@]2(C)C3=C(CC[C@]12C)[C@@]1(C)CC[C@H](O)C(C)(C)C1CC3)C(C)C` (stereo partly shown) the Kd (C. armatus CYP51 [7]) was 1020 ± 40 nM, the “Spin State Transition in the Heme Iron” value (C. armatus CYP51 [7]) was 27% and the Km (C. armatus CYP51 [8]) was 13 ± 0.9 µM. For the same compound, the kcat (C. armatus CYP51 [8]) was 1.03 ± 0.0383 s⁻¹.
For `CCC(C)n1ncn(-c2ccc(N3CCN(c4ccc(OCC5COC(Cn6cncn6)(c6ccc(Cl)cc6Cl)O5)cc4)CC3)cc2)c1=O` (stereo not shown) [itraconazole], the Kd (human CYP51 [4]) is listed as 1290 nM, the Kd (C. armatus CYP51 [5]; [9]) is listed as 620 nM and the “inhibitory effect” value (C. armatus CYP51 [6]) is listed as “did not have any inhibitory effect”.
With `C=C(CC[C@@H](C)[C@H]1CC[C@@]2(C)C3=C(CC[C@]12C)[C@@]1(C)CC[C@H](O)[C@@H](C)[C@@H]1CC3)C(C)C` [Obtusifoliol, obtusifoliol] the Kd (C. armatus CYP51 [7]) was 560 ± 30 nM, the “Spin State Transition in the Heme Iron” value (C. armatus CYP51 [7]) was 13% and the Km (C. armatus CYP51 [8]) was 7.9 ± 0.6 µM. The kcat (C. armatus CYP51 [8]) was 0.865 ± 0.03 s⁻¹.
In the case of `CC(C)=CCC[C@@H](C)[C@H]1CC[C@@]2(C)C3=C(CC[C@]12C)[C@@]1(C)CC[C@H](O)C(C)(C)[C@@H]1CC3` [Lanosterol], the Kd (C. armatus CYP51 [7]) is reported as 770 ± 40 nM, the “Spin State Transition in the Heme Iron” value (C. armatus CYP51 [7]) is reported as 22% and the Km (C. armatus CYP51 [8]) is reported as 8.1 ± 1.1 µM. For the same compound, the kcat (C. armatus CYP51 [8]) was 0.797 ± 0.0317 s⁻¹.
In the case of `CC[C@@H]([C@H](C)O)n1ncn(-c2ccc(N3CCN(c4ccc(OC[C@@H]5CO[C@@](Cn6cncn6)(c6ccc(F)cc6F)C5)cc4)CC3)cc2)c1=O` [posaconazole], the “inhibitory effect” value (C. armatus CYP51 [6]) is reported as “did not have any inhibitory effect”.
In the case of `C[C@@H](c1nc(-c2ccc(C#N)cc2)cs1)[C@](O)(Cn1cncn1)c1cc(F)ccc1F` [isavuconazole], the “inhibitory effect” value (C. armatus CYP51 [6]) is reported as “did not have any inhibitory effect”.
